# Experimental data published in patent US20050059645A1, “Methods for the treatment of male and female sexual dysfunction” (priority 2003, published 2005).
# Read-outs that look alike come from different tables or passages of the source.
# Tests used:
# [1] = tested on: ovariectomized female rats; assay: Lordosis behavior test (lordosis quotient) in ovariectomized female rats; assay type: in vivo, rat
# Experimental: Thus, lordosis was selected as an indicator of restoration of female sexual function in ovariectomized female rats and an appropriate indicator for alleviating symptoms of female sexual dysfunction.
# Adult female Sprague Dawley rats (220-250 g) from Charles River Hungary Ltd., Godollo, Hungary, were used. Animals were kept in community cages (4 animals/cage) in a climate-controlled room (23±2° C., 50-60% humidity), with a 14 hour light, 10 hour dark cycle of artificial lighting, using reversed light/dark cycle. Food and water were available ad libitum.
# After a minimum five-day acclimatization period, animals were ovariectomized under ether anesthesia, then were left to recover for 3 weeks before testing (reconvalescence). All animals were treated in accordance with the guidelines of the European Communities Council Directive (86/609/EEC) and studies were permitted by the Institutional Animal Care Commission.
# Estradiol benzoate and progesterone were obtained from Sigma Chemical Co. Inc., Budapest, Hungary. […] E2-CDS as a 3% complex with HPβCD (E2-CDS-CD) was dissolved in distilled water and diluted with 27% HPβCD solution. E2-CDS-CD was synthesized by Alchem Laboratories Corporation, Alachua, Fla., US.
# (§1) After recovery from surgery, ovariectomized female rats were divided into four groups and treated once a day for five days intravenously, via a bolus injection through the tail vein, as follows: (1) control, 27% HPβCD solution; (2) 0.003 mg/kg E2-CDS dissolved in 27% HPβCD solution; (3) 0.01 mg/kg E2-CDS dissolved in 27% HPβCD solution; and (4) 0.03 mg/kg E2-CDS dissolved in 27% HPβCD solution. A minimal number of ovariectomized (8 to 12) females were used per group. Intravenous treatments either with E2-CDS or HPβCD (controls) were carried out daily for 5 days beginning 2 days prior to the first day of behavior observations, in a volume of 0.05 ml/100 g body weight.
# The behavior test was conducted in a plexiglass observation cage during the dark cycle. During behavioral observations, only a dim red light was on.
# An experienced and active male rat was placed in the arena 5 minutes prior to the female. […] The lordosis quotient (LQ) expresses the estrogen effect on sexual receptivity and was calculated as follows: LQ=100×number of lordoses/10 mounts The observation of the sexual behavior of each female was carried out, in the case of E2-CDS, every day for 22 days; in the case of EB, investigations were carried out every day for 10 days. […] Citrated blood samples were taken by retro-orbital sinus puncture under light ether anesthesia. The samples were stored at 4° C. for one hour, then centrifuged at 1000 g for 10 minutes. Plasma was separated and stored at −80° C. until assayed. Plasma LH concentrations from individual samples were measured by double antibody radioimmunoassay kits obtained from Amersham Pharmacia Biotech, Rome, Italy. […] The limit of detection was 15 pg/ml.
# Behavioral changes were analyzed using the Mann-Whitney U test (Siegel, Nonparametric Statistics for the Behavioral Sciences, New York; McGraw-Hill Book Company, Inc., 1956). The Fisher exact test was used for percentage comparisons (Zar, Biostatistical Analysis, Prentice Hall, Inc., Englewood Cliffs, N.J., 1974). Serum LH data were analyzed for each time and treatment group by analysis of variance (ANOVA) followed by Bonferroni posthoc test.
# LH [2] = assay: Plasma LH by radioimmunoassay in ovariectomized female rats; assay type: in vivo, rat; conditions: 0.003, 0.01 and 0.03 mg/kg i.v. daily for 5 days
# Experimental: as §1
# An experienced and active male rat was placed in the arena 5 minutes prior to the female. […] The lordosis quotient (LQ) expresses the estrogen effect on sexual receptivity and was calculated as follows: LQ=100×number of lordoses/10 mounts The observation of the sexual behavior of each female was carried out, in the case of E2-CDS, every day for 22 days; in the case of EB, investigations were carried out every day for 10 days. […] Citrated blood samples were taken by retro-orbital sinus puncture under light ether anesthesia. […] Plasma LH concentrations from individual samples were measured by double antibody radioimmunoassay kits obtained from Amersham Pharmacia Biotech, Rome, Italy. […]
# 2OHE1/16OHE1 = assay: Phase I: urinary estrone metabolites 2OHE1/16OHE1; assay type: in vivo, human; conditions: for amount of urinary 16OHE1 relative to day 1: female, human, in vivo
# Source text: (§2) A brief evaluation of the results follows:
# [3] = female, human, in vivo, 2.5 mg
# Source text: as §2
# One explanation for this difference might be the difference in the dissolution (and buccal residence) time of the two formulations used in these two different studies.
# LH [4] = conditions: cited from earlier work
# morphine-dependent rats = conditions: cited from earlier work
# LH [5] = conditions: cited from earlier work; remark: listed apart in the source
# LH [6] = conditions: cited from earlier work; remark: listed apart in the source
# castrated male rats = conditions: cited from earlier work
# testosterone = conditions: 1 mg/kg i.v., cited from earlier work
# postmenopausal women = assay: Phase I: safety and tolerance (adverse events); conditions: 2.86 mg buccal, both regimens
# Experimental: Even more recently, in a Phase I clinical study of postmenopausal women, two different administration regimens of a 2.86 mg E2-CDS buccal delivery tablet were evaluated for safety and effects on hormone levels. The subjects were 12 healthy postmenopausal volunteers, divided into two groups of six. In Group A, women were dosed once daily for 10 days (10 doses); in Group B, women were dosed once every other day for 13 days (7 doses).
# [7] = 0.01 mg/kg i.v. once a day for 5 days
# [8] = 0.03 mg/kg i.v. once a day for 5 days
structure (smiles),measurement,setting,value
"CN1C=CCC(C(=O)O[C@H]2CC[C@H]3[C@@H]4CCc5cc(O)ccc5[C@H]4CC[C@]23C)=C1 [E2-CDS, 17β-[(1-methyl-1,4-dihydro-3-pyridinyl)carbonyloxy]estra-1,3,5(10)-trien-3-ol]","lordosis quotient, effect",[1]; 0.003 mg/kg i.v. once a day for 5 days,"slightly enhanced the lordosis quotient, but these effects were not statistically significant"
same,duration of LQ increase (after day 11 not statistically significant),[1]; [7],lasted till day 15
same,"lordosis quotient LQ, effect",[1]; [7],significantly enhanced the LQ from day 5 to day 11
same,duration of LQ enhancement,[1]; [8],from day 3 to day 18
same,"lordosis quotient LQ, effect",[1]; [8],significantly enhanced
same,"plasma LH levels, effect",LH [2],suppressed at all dosage levels
same,increase of ratio of 2OHE1 to 16OHE1 during treatment,2OHE1/16OHE1; Group A,63.6%
same,increase of ratio of 2OHE1 to 16OHE1 during treatment,2OHE1/16OHE1; Group B,54.7%
same,"difference of mean ratios, urine","2OHE1/16OHE1; day 10-1, Group A",0.15
same,"difference of mean ratios, urine","2OHE1/16OHE1; day 13-1, Group B",0.05
same,amount of urinary 16OHE1 relative to day 1,2OHE1/16OHE1; 10 day,2.48 times
same,amount of urinary 16OHE1 relative to day 1,2OHE1/16OHE1; 13 day,1.26 times
same,Tmax of E2,[3],2 h
same,average Cmax of E2,[3],0.1534 ng/mL
same,duration of LH suppression,"LH [4]; 0.1 mg/kg i.v. in 20% (w/v) HPβCD, castrated female rats (Brewster 1988)",18 days
same,LH inhibition,"LH [4]; 0.5 mg/kg single i.v., day 12 (Estes 1987, Experiment 3)",heterogeneous results
same,LH compared to equimolar estradiol 17-valerate,"LH [4]; 0.5 mg/kg single i.v., day 12 or 18 (Estes 1987, Experiment 4)",significantly decreased by E2-CDS compared to estradiol valerate
same,plasma LH,LH [4]; 1.0 mg/kg i.v. single and multiple weekly doses (Rahimy 1991),significantly suppressed for single and multiple doses
same,serum LH decrease compared to vehicle,"LH [4]; 2 mg/kg single i.v., day 12 (Estes 1987, Experiment 3)",75%
same,serum LH decrease compared to vehicle,"LH [4]; 5 mg/kg single i.v., day 12 (Estes 1987, Experiment 3)",91%
same,reduction in serum LH,"LH [4]; multiple i.v. injections (7, every two days) 10 to 333 μg/kg (Anderson 1988)",32-76%
same,reduction in serum LH,LH [4]; single i.v. dose 10 μg/kg (Anderson 1988),no effect
same,reduction in serum LH,"LH [4]; single i.v. dose 33 to 333 μg/kg, 2 days before sacrifice (Anderson 1988)",39-52%
same,naloxone-induced rise in TST,"morphine-dependent rats; 1 mg/kg i.v. once weekly for three weeks, tested one week after last injection",significantly attenuated
same,attenuation of naloxone-induced rise in TST,"morphine-dependent rats; single 1 mg/kg i.v., tested one week after injection",25%
same,LH levels,"LH [5]; 3 mg/kg single i.v., 12, 18 and 24 days post-treatment",remained very significantly reduced
same,duration of suppression of LH,"LH [5]; castrated male rats, 3 mg/kg i.v. studies",at least 24 days
same,effects on plasma LH,LH [6]; 1280 μg single i.v. dose group,substantial and sustained decreases
same,effects on plasma LH,LH [6]; 10-40 μg single i.v. dose group,Minimal effects
same,effects on plasma LH,LH [6]; 80-640 μg single i.v. dose group,threshold effects
same,time through which LH was lowered in a clinically meaningful way,"LH [6]; single 1280 μg i.v. dose, one post-menopausal volunteer",96 h
same,masculine sexual behavior,castrated male rats; 3 mg/kg i.v. (Anderson '911 patent),"stimulated mounting behavior, increased intromission behavior and reduced both mount latency and intromission latency"
same,ejaculatory behavior,castrated male rats; 3 mg/kg single tail vein injection in DMSO (Anderson 1987),ejaculatory behavior was not restored
same,duration of improved masculine sexual behavior,castrated male rats; single i.v. dose of 3 mg/kg (Anderson '911 patent),28 days
same,decrease of serum testosterone levels,testosterone; one day after treatment,99%
same,suppression of serum testosterone,testosterone; through 14 days post-treatment,more than 96%
same,severity of adverse events,postmenopausal women,"All AEs were mild or moderate, no serious AE was observed"
